According to patent publication US20200345268A1, “ISOTOPIC BIOMARKERS OF ORGANIC ACIDEMIAS” (The United States of America, as represented by the …, priority 2017, published 2020):

Tests used:
[1] = test system: Mut^−/−; Tg^INS-MCK-Mut mice; conditions: mouse, in vivo; for Mut^+/− Oxidation Rate / Mut^−/− Oxidation Rate: ip
Method: To further assess transgene function, the in vivo oxidative capacity of Mut^−/−; Tg^INS-MCK-Mut mice was measured through detecting metabolism of numerous 1-^13C labeled fatty acids to ^13CO2 via the Kreb's Cycle.
The in vivo effects of hepatic Mut deficiency were also assessed by measuring the oxidation of 1-^13C-methionine (FIG. 1I) and 1-^13C-glycine (FIG. 1J). These labels reflect hepatic mitochondrial function and the activity of the glycine cleavage system, both known to be impaired in MMA patients.
In Vivo Stable Isotope Oxidation Studies: Stable isotope studies were performed in 4 Mut−/−; Tg^INS-MCK-Mut and 4 control littermates. Closed circuit, constant volume respiratory chambers were used to collect and measure enrichment of ^13CO2 in mice, as described previously (Chandler and Venditti, 2009 and 2010, Manoli et al 2013). Mice received IP injections with tracer amounts (10 μl/g of [10 mg/ml] tracer solution) of 99.9% ^13C-isotopomers. Aliquots of air were removed every 5-10 min, while CO2 was continuously monitored. ^13CO2 enrichment was measured by isotope ratio mass spectroscopy (Metabolic Solutions, Nashua, N.H.). […] Cumulative percentage of total isotopomer dose metabolized was subsequently calculated, using the formula: Percentage of dose metabolized=total ^13C excreted [mmol/dose (mmol)×100%].
The following 1-C labeled stable isotopes were used: ^13C Sodium Propionate, ^13C-Methionine, ^13C-Glycine, ^13C-Pyruvate, ^13C-Octanoate, ^13C-α-Ketoisocaproic Acid, ^13C-Leucine, ^13C-Acetate, ^13C-Phenylalanine. Stable isotopomers were purchased from Cambridge Isotope Laboratories. Variables were compared for each substrate and time point using a two-sided unpaired t-test and considered statistically significant at p<0.05.
These studies were conducted using N=5 mice with MMA (Mut^−/−; Tg^INS-MCK-Mut mutants) and N=5 sex matched littermates (controls). Each mouse was injected with the labels depicted in Table 3 and the oxidation rates and kinetics of ^13C/^12C CO2 enrichment were analyzed.

[2] = test system: methylmalonic acidemia patients and healthy volunteers; conditions: human, in vivo
From the text: Percent Dose Oxidized at each time point=CO2 production rate×Σ(APE (t)/(mmol C^13 administered)×100, where CO2 production rate was the one measured by the indirect calorimetry on the same day just prior to the isotope study.
The test cohort was comprised of 41 patients with MMA (26 mut0, aged 3-37 years, 6 mut-, aged 9-30 years, and 9 cblA, aged 4-41 years), 8 healthy volunteers, and 8 heterozygote parents of affected individuals. Within the affected group, 12 individuals had previously received a liver (LT), kidney (KT), combined liver-kidney (LKT), or partial (graft) liver-kidney (pLKT) transplant (2 LT, 3 KT, 6 LKT, 1 pLKT).
A metabolic cart (ParvoMedics TrueOne2400 Sandy, Utah) was used to measure subject O2 consumption (VO2), CO2 production (VCO2), and resting energy expenditure (REE) at supine posture for 25-35 minutes. Seven of the healthy volunteers were tested three times over a two-month period to evaluate inter- and intra-individual variability.
A dose of 0.5 mg/kg (or 0.5 ml/kg) body weight (BW) was administered to the study subjects orally or through a G-tube as a bolus over no more than 2 minutes, followed by similar amount of water consumption. […] Measurements of the isotopic ratio (^13C/^12C) in expired gas were determined by isotope ratio mass spectrometry (Metabolic Solutions, Nashua, N.H.).

[3] = Test drink solution stability; type: physicochemical; conditions: 1 mg/ml in tap water

C[13C](=O)[O-].[Na+] [1-^13C-acetate, Sodium 1-^13C-Acetate]
Cumulative % of total dose metabolized, Controls, mean (SD) [1]: 38.02 (11.79) % | Cumulative % of total dose metabolized, Mutants, mean (SD) [1]: 42.23 (14.32) % | Mut^+/− Oxidation Rate [1]: 69.5 +/− 17.7 (n = 5) μmol/g/hour | Mut^−/− Oxidation Rate [1]: 88.2 +/− 26.5 (n = 5) μmol/g/hour

NC[13C](=O)O [1-^13C-glycine]
oxidation of label (release of label) [1]: impaired ability to release label | Mut^+/− Oxidation Rate [1]: 0.14 +/− 0.003 (n = 3) μmol/g/hour | Mut^−/− Oxidation Rate [1]: 0.07 +/− 0.007 (n = 4) μmol/g/hour

CSCC[C@H](N)[13C](=O)O [1-^13C-methionine]
oxidation of label (release of label) [1]: impaired ability to release label | Mut^+/− Oxidation Rate [1]: 11.5 +/− 3.4 (n = 4) μmol/g/hour | Mut^−/− Oxidation Rate [1]: 6.5 +/− 2.5 (n = 4) μmol/g/hour

CCC(=O)O [1-^13C-propionate, sodium 1-^13C-propionate]
time within which the majority of the label is oxidized [2]: 15 to 30 min | maximal time for maintaining solution stability [3]: two

CC(C)[13C@H](N)C(=O)O [2-^13C-Valine]
Cumulative % of total dose metabolized, Controls, mean (SD) [1]: 4.41 (2.63) % | Cumulative % of total dose metabolized, Mutants, mean (SD) [1]: 5.15 (2.19) %

CC(C)C[C@H](N)[13C](=O)O [L-1-^13C-Leucine]
Cumulative % of total dose metabolized, Controls, mean (SD) [1]: 13.54 (1.50) % | Cumulative % of total dose metabolized, Mutants, mean (SD) [1]: 12.44 (3.10) %

N[C@@H](C[13c]1ccccc1)C(=O)O [L-1-^13C-Phenylalanine]
Cumulative % of total dose metabolized, Controls, mean (SD) [1]: 10.75 (7.38) % | Cumulative % of total dose metabolized, Mutants, mean (SD) [1]: 5.71 (2.74) %

CC(C)C[13C@H](N)C(=O)O [L-2-^13C-Leucine]
Cumulative % of total dose metabolized, Controls, mean (SD) [1]: 3.68 (2.34) % | Cumulative % of total dose metabolized, Mutants, mean (SD) [1]: 3.32 (0.85) %

C[13C](=O)C(=O)O [Sodium 1-^13C-Pyruvate]
Cumulative % of total dose metabolized, Controls, mean (SD) [1]: 52.16 (17.06) % | Cumulative % of total dose metabolized, Mutants, mean (SD) [1]: 52.99 (9.85) %

CC(C)CC(=O)[13C](=O)[O-].[Na+] [Sodium 1-^13C-α-Ketoisocaproic Acid]
Cumulative % of total dose metabolized, Controls, mean (SD) [1]: 33.95 (3.66) % | Cumulative % of total dose metabolized, Mutants, mean (SD) [1]: 24.00 (12.95) %
